Data reported in US20230355801A1, “IMMUNOTHERAPY OF SKIN CANCER USING MPLA-LOADED HPG NANOPARTICLES” (Yale University, priority 2022, published 2023).

Test system: dendritic cells in tumor draining lymph nodes
Assay: Maturation of dendritic cells in tumor draining lymph nodes of mice (Example 5)
Format: in vivo, mouse
Conditions: 24 hour after intratumoral injection, 10 μg MPLA
Method: Immunocompetent mice were injected with Yale University Mouse Melanoma Exposed to Radiation 1.7 (YUMMER1.7) cells for in vivo modeling of immunogenic, cutaneous melanoma. 300,000 cells of YUMMER 1.7 melanoma cells in 50 μL of sterile PBS were intradermally injected into the left flank of syngeneic C57Bl/6 mice.
The mice were watched for tumor growth for eight days until the mice were randomly divided into groups (n=10) based on tumor sizes between 40-90 mm^3. The mice received vehicle (10 μl distilled water), free MPLA (10 μg), NNP-MPLA (10 μg of active MPLA), and BNP-MPLA (10 μg of active MPLA) intratumorally. The mice were sacrificed either at 24 hours or 72 hours after the single intratumoral injection. The tumor draining lymph nodes, both axillary and inguinal, were collected from each mouse. A petri dish was used to collect the lymph nodes, and the frosted ends of microscope slides were used to gently release immune cells from the lymph nodes into fresh CRPMI and placed on ice until resuspension. […]
After lymph node single cell collection, the cells were rinsed with sterile PBS and plated into a 96 round-bottom well plate at a concentration density of 1-2×10^6 cells per well then rinsed again with PBS. […] The stained cells were then detected by flow cytometer (Cytoflex, Beckman Coulter). […]

In the case of monophosphoryl lipid A [free MPLA], the “dendritic cell maturation (CD80+CD86+ in CD11c+ cells) in TDLN” value is reported as “significant increase”.
